Data as given in patent publication US20250250606A1, “BIOELECTROCHEMICAL DETERMINATION OF LACTATE” (DIRECTSENS GMBH, priority 2022, published 2025).

What was measured:
[1] = biological target: T1, Lactobacillus helsingborgensis lactate dehydrogenase LhLDH, SEQ ID NO: 13, N-terminal 6xHis/HRV 3C tag (SEQ ID NO: 250) (Lactobacillus helsingborgensis, UniProt A0A0F4LW09); test: Apparent steady-state kinetics of L-lactate oxidation with DCIP as electron acceptor; assay type: biochemical; conditions: L-lactate 0.125 to 64 mM, DCIP 120 μM, 11 mM PBS pH 7.4, 30° C.
T1 sequence (A0A0F4LW09 1-409): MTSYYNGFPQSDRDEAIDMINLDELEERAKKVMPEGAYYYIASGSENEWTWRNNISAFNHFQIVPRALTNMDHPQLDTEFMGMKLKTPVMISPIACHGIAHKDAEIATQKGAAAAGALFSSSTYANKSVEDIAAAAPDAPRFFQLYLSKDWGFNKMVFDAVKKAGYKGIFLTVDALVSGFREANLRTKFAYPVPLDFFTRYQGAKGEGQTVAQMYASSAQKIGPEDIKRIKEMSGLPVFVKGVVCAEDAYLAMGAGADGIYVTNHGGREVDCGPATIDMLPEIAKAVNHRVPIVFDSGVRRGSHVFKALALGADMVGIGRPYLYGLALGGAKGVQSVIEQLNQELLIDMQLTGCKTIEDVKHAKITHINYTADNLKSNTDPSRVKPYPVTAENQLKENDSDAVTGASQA

[2] = biological target: T2, Pediococcus acidilactici lactate dehydrogenase PaLDH (PaLCTO), native form, SEQ ID NO: 2 (Pediococcus acidilactici, UniProt E0NE46); conditions: apparent; L-lactate 4 to 500 mM; DCIP 120 μM; 11 mM PBS pH 7.4, 30° C.; per monomeric mass
T2 sequence (E0NE46 1-369): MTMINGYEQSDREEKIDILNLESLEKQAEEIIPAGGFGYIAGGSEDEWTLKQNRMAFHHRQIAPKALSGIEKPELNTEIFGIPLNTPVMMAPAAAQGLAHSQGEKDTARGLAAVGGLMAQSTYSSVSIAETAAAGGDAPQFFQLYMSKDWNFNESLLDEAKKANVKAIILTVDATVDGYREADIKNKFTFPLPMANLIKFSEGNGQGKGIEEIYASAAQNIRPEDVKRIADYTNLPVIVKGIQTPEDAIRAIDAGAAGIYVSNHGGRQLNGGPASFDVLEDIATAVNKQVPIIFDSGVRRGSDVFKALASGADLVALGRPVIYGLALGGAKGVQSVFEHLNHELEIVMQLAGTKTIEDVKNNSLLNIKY

[3] = system: Shigella sp. FC1655 lactate dehydrogenase SsLDH, SEQ ID NO: 74, predicted signal peptide removed, N-terminal 6xHis/HRV 3C tag (SEQ ID NO: 250); conditions: apparent, L-lactate 0.125 to 64 mM, DCIP 120 μM, 11 mM PBS pH 7.4, 30° C.
[4] = biological target: T3, Lactobacillus johnsonii lactate dehydrogenase LjLDH, SEQ ID NO: 59, N-terminal 6xHis/HRV 3C tag (SEQ ID NO: 250) (Lactobacillus johnsonii, UniProt A0A7D9N8I3); test: Apparent steady-state kinetics of L-lactate oxidation with DCIP as electron acceptor; assay type: biochemical; conditions: L-lactate 0.125 to 64 mM, DCIP 120 μM, 11 mM PBS pH 7.4, 30° C.
T3 sequence (A0A7D9N8I3 1-412): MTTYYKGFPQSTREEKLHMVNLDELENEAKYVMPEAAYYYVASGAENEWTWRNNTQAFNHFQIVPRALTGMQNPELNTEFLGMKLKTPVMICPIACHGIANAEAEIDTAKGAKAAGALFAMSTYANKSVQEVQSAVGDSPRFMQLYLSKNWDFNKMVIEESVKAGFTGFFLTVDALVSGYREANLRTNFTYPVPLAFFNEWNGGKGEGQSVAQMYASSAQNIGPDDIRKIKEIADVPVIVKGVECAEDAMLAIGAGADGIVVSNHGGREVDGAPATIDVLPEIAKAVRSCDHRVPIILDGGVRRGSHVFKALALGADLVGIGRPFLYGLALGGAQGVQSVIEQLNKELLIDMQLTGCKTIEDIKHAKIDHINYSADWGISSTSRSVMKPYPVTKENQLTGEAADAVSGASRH

[5] = biological target: T4, Gilliamella bombicola lactate dehydrogenase GbLDH, SEQ ID NO: 73, N-terminal 6xHis/HRV 3C tag (SEQ ID NO: 250) (Gilliamella bombicola, UniProt A0A1C4CJ33); test: as above; assay type: biochemical; conditions: L-lactate 0.125 to 64 mM, DCIP 120 μM, 11 mM PBS pH 7.4, 30° C.
T4 sequence (A0A1C4CJ33 1-365): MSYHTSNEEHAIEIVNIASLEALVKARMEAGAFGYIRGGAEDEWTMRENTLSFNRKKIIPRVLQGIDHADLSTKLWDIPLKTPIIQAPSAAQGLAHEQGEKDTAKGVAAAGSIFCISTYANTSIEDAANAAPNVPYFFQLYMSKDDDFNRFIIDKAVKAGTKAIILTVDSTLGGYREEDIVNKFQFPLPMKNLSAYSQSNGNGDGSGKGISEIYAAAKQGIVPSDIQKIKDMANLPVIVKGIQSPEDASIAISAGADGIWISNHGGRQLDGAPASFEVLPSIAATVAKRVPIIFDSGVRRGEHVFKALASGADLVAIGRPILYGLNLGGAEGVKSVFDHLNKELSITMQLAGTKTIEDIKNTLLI

[6] = system: C[C@H](O)C(=O)O; test: purified protein, by the assay type; conditions: other: apparent, L-lactate 0.125 to 64 mM, DCIP 120 μM, 11 mM PBS pH 7.4, 30° C.

Compound | Km [1] [mM] | kcat ([1]; per monomeric mass) [s⁻¹] | kcat [2] [s⁻¹] | Km [3] [mM] | kcat ([3]; per monomeric mass) [s⁻¹] | Km [4] [mM] | kcat ([4]; per monomeric mass) [s⁻¹] | Km [5] [mM] | kcat ([5]; per monomeric mass) [s⁻¹] | Km [6] [mM] | kcat [6] [s⁻¹] | kcat/Km [6] [M⁻¹ s⁻¹]
C[C@H](O)C(=O)O [L-lactate] | 0.52 ± 0.09 | 102 ± 8 | 61.8 ± 8.5 | 5.67 ± 1.24 | 107 ± 10 | 1.35 ± 0.18 | 47.2 ± 2.0 | 16.9 ± 2.5 | 207 ± 29 | – | – | –
Enterococcus avium lactate dehydrogenase EaLDH, SEQ ID NO: 155, N-terminal 6xHis/HRV 3C tag (SEQ ID NO: 250) (Enterococcus avium ATCC 14025) | – | – | – | – | – | – | – | – | – | 21.6 ± 2.2 | 94 ± 7.8 | 4350
